“Also recorded” adds a separate entry of the source.
How the values were obtained:
perfused rat pancreas = details: cited from earlier work
[1] = Stability in human blood serum, Method B; format: in vitro ADME; details: human blood serum and RPMI-1640, 37° C.
Procedure: (§1) Preparation of the Human Blood Serum: Blood Taken from Healthy Volunteers was obtained from a blood bank (Tel-Hashomer hospital, Israel), stored for 12 h at 4° C. and centrifuged in plastic tubes at 1500 g for 15 min at room temperature. The serum was separated and stored at −80° C.
The assay mixture, containing a 40 mM nucleotide derivative solution in deionized water (4.5 μl), human blood serum (180 μl) and RPMI-1640 (540 μl), was incubated at 37° C. for 1, 4, 8, 16, 24, 48, 72, 96, 120 and 144 h. The samples were then heated to 80° C. for 30 min, treated with CM Sephadex (1-2 mg) for 2 h, centrifuged for 6 min (12,000 rpm) and extracted with chloroform (2×500 μl). The aqueous layer was freeze-dried. The stability of the nucleotide was evaluated by HPLC for monitoring possible dephosphorylation products. The mixture was separated on a Gemini analytic column (5u C-18 110A, 150×4.60 mm) with gradient elution [100 mM TEAA, pH 7 (A)/MeOH (B), 79:21, A:B, 15 min for 4A and 4B; 100 mM TEAA, pH 7 (A)/acetonitryl (B), A:B, 10 min, 100:0→90:10 A:B 10 min, 90:10→80:20 A:B 4 min, 80:20 A:B 1 min for ATP] and flow rate of 1 ml/min. The hydrolysis rate was determined by measuring the change in the integration of the respective HPLC peaks with time.

ecto-nucleotidases = details: muscle strips preparations, 60 min incubation; cited from earlier work
[2] = Stability in human blood serum, Method A; format: in vitro ADME; details: human blood serum and RPMI-1640, 37° C.
Procedure: as §1
The assay mixture, containing a 40 mM nucleotide derivative solution in deionized water (4.5 μl), human blood serum (180 μl) and RPMI-1640 (540 μl), was incubated at 37° C. for 1, 4, 8, 16, 24, 48, 72 and 96 h. The samples were then treated with 0.6 M of hydrochloric acid (430 μl), centrifuged for 2 min (13,000 g, 4° C.), neutralized by addition of 4 M of KOH, centrifuged for 2 min (13,000 g, 4° C.) and freeze-dried. The stability of the nucleotide was evaluated by HPLC for monitoring possible dephosphorylation products. The mixture was separated on a Gemini analytic column (5u C-18 110A, 150×4.60 mm) with gradient elution [0.01 M KH2PO4 pH=4.5 (A)/acetonitrile (B), 100:0→60:40, A:B, 20 min for 2, 3A and 3B; 100:0→95:5, A:B, 10 min for ATP] and flow rate of 1 ml/min. The hydrolysis rate was determined by measuring the change in the integration of the respective HPLC peaks with time.

human P2Y2 = target: T1, human P2Y2 (Homo sapiens, UniProt P41231); assay: Intracellular calcium measurement ([Ca2+]i, fura-2) in 1321N1 astrocytoma cells; format: cell-based; set-up: key to Compound-induced activation of [Ca2+], P2Y2, response class: sr = slight response at 100 μM; nr = no response; details: for Compound-induced activation of [Ca2+], P2Y2, response class: 1321N1 cells expressing human P2Y2
T1 construct: expressed in transfected cells
T1 sequence (P41231 whole entry): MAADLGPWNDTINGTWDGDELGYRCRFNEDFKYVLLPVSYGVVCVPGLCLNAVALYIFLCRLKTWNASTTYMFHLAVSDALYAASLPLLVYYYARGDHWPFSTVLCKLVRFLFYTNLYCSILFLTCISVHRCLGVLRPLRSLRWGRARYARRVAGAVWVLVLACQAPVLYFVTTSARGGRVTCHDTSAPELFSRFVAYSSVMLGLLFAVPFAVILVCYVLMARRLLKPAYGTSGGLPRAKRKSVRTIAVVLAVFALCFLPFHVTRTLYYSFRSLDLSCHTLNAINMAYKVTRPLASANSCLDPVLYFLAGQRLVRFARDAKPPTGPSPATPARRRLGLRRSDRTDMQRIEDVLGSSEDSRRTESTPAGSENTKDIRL
Procedure: (§2) Human 1321N1 astrocytoma cells stably expressing the turkey P2Y1, human P2Y2, human P2Y4 or rat P2Y6 were grown in Dulbecco's modified Eagle's medium containing 5% (v/v) fetal bovine serum, 100 units/ml penicillin, 100 μg/ml streptomycin and 500 μg/ml Geneticin (G-418, Life Technologies, Inc). Changes in the intracellular free calcium concentration, [Ca^2+]i were detected by dual-excitation spectrofluorometric analysis of cell suspensions loaded with fura-2, as previously described (Garrad et al., 1998; Grynkiewicz et al., 1985). Cells were assayed in 10 mM Hepes-buffered saline (pH 7.4) containing 1 mM CaCl2 and 1 mM MgCl2. The cells were pelleted in a microfuge and resuspended in 2 ml of buffer. Concentration-response data were analyzed with the Prism curve fitting program (GraphPAD Software, San Diego, Calif.). Three experiments were conducted on separate days for each P2Y receptor subtype.
(§3) The activities of compounds 2, 4B, 17, 18, 19A, 21 (isomers A and B) were examined at the G protein-coupled P2YRs, P2Y1, P2Y2, P2Y4 and P2Y6 expressed in human 1321N1 astrocytoma cells, based on intracellular calcium measurements, as described in Experimental above. In particular, the activity of compound 2, 4B and 19 was examined at P2Y1R, P2Y2R, P2Y4R and P2Y6R, and the activity of compounds 17, 18 and 21 was examined at P2Y1R only. The experiments were conducted by Prof. Gary A. Weisman from Columbia-Missouri University, Columbia, Mo., USA.

rat P2Y6 = target: T2, rat P2Y6 (Rattus norvegicus, UniProt Q63371); assay: as above; format: cell-based; set-up: key to Compound-induced activation of [Ca2+], P2Y6, response class: sr = slight response at 100 μM; nr = no response; details: for Compound-induced activation of [Ca2+], P2Y6, response class: 1321N1 cells expressing rat P2Y6; for agonistic effect on P2Y6R: at 100 μM
T2 construct: expressed in transfected cells
T2 sequence (Q63371 whole entry): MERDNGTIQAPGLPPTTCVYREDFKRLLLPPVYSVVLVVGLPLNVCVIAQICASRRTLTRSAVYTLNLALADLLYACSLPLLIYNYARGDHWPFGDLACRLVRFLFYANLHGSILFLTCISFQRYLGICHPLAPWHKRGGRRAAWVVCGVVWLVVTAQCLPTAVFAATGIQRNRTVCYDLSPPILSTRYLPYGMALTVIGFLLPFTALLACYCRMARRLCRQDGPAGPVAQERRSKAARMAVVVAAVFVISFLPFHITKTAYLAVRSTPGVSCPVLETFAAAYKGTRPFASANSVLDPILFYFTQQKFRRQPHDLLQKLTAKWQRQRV
Procedure: as §2, §3

turkey P2Y1 = target: T3, turkey P2Y1 (Meleagris gallopavo, UniProt P49652); assay: as above; format: cell-based; details: human 1321N1 astrocytoma cells expressing turkey P2Y1; read-out: Compound-induced activation of [Ca2+] EC50, P2Y1
T3 construct: expressed in transfected cells
T3 sequence (P49652 whole entry): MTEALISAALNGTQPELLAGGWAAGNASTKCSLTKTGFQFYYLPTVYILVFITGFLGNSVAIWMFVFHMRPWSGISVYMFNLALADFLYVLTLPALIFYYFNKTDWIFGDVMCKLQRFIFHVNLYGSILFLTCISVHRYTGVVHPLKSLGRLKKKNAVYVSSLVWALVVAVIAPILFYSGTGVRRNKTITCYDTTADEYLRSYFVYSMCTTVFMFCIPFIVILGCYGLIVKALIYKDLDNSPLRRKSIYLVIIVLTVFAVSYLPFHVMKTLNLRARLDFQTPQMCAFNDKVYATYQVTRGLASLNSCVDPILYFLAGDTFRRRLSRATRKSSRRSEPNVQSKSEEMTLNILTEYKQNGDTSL
Procedure: as §2, §3

human P2Y4 = target: T4, human P2Y4 (Homo sapiens, UniProt P51582); assay: as above; format: cell-based; set-up: key to Compound-induced activation of [Ca2+], P2Y4, response class: sr = slight response at 100 μM; nr = no response; details: 1321N1 cells expressing human P2Y4
T4 construct: expressed in transfected cells
T4 sequence (P51582 whole entry): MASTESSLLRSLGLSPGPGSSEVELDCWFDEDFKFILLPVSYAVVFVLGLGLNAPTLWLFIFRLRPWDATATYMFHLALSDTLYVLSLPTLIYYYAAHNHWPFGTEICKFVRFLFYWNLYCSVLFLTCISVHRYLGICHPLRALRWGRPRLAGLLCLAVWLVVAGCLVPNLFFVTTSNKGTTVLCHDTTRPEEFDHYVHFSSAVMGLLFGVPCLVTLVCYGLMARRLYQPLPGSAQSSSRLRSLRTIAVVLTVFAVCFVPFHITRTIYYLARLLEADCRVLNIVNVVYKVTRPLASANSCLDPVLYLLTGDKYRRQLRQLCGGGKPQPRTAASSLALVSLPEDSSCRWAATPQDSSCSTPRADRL
Procedure: as §2, §3

[3] = pKa and degree of ionization of terminal phosphonate/phosphate; format: physicochemical; details: assay conditions, pH 7.4
rP2Y1R = target: T5, rP2Y1R (Rattus norvegicus, UniProt P49651); details: HEK293 cells expressing rP2Y1R, Ca2+ mobilization; cited from earlier work
T5 construct: host or cells: HEK293 cells
T5 sequence (P49651 whole entry): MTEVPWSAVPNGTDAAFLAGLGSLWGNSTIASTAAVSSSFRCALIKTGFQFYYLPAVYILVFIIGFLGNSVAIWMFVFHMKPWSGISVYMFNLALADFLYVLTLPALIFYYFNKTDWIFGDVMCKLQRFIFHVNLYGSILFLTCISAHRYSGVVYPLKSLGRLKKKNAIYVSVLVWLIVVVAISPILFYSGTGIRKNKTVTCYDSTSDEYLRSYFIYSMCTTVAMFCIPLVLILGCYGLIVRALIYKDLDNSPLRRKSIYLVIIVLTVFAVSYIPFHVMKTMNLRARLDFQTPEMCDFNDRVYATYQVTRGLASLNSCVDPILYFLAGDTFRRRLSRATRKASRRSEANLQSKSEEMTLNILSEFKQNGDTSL

[4] = Glucose challenge in cannulated Wistar rats (insulin secretagogue efficacy); format: in vivo, rat; details: starved Wistar rats
Source text: The objective of this experiment is to study in vivo the efficacy of the compounds of the present invention as insulin secretion enhancing molecules, following a single oral gavage (per os) administration of glucose to cannulated Wister rats, by measuring the blood glucose and insulin levels following administration of the tested compound to the cannulated rats intra venues through the cannule.
A total of about 40 healthy 10-13 week old Wister rats are used. Animals are acclimatized for at least 4 days prior to commencement of treatment and are fed with non-medicated commercial sterile rodent food ad libitum. Drinking tap water are available ad libitum.
About 48 hours prior treatment, rats are weighted and a population uniform in weight (about 90% of the animals) is taken for cannulation. In particular, animals are anesthetized by 2.5% isofluran 97.5% dry air inhalation, and a P52 cannula is surgically inserted and fixed in the jugular vein and flushed with 0.3-0.5 ml 5% heparinized saline after cannulation (and thereafter, immediately after each blood collection). In case a technical problem such as fixation or clotting arises with a rat's indwelling cannula, another rat is cannulated and replace the previously allocated rat in the study.
On the day of treatment, the cannule of each one of the rats is checked, the rats are weighed, and the glucose level of each one of the rats is checked via the tail vain. […]
Glucose and insulin levels are measured 30 minutes prior to glucose administration (and prior to glibenclamide administration in the case of the positive control group); immediately before and 5 minutes after glucose administration; 15 minutes after glucose administration, namely, 5 minutes after administration of the tested compound or saline (in the cases of the first and the negative control groups, respectively); and then 30, 45, 60 120 and 150 minutes after glucose administration. […]

[5] = target: T6, calf intestine alkaline phosphatase (Bos taurus, UniProt P19111); assay: Enzymatic stability to alkaline phosphatase; format: in vitro ADME; details: 37° C., as in Example 6
T6 construct: purchased Fermentas Inc., Glen Burnie, Md
T6 sequence (P19111 20-506): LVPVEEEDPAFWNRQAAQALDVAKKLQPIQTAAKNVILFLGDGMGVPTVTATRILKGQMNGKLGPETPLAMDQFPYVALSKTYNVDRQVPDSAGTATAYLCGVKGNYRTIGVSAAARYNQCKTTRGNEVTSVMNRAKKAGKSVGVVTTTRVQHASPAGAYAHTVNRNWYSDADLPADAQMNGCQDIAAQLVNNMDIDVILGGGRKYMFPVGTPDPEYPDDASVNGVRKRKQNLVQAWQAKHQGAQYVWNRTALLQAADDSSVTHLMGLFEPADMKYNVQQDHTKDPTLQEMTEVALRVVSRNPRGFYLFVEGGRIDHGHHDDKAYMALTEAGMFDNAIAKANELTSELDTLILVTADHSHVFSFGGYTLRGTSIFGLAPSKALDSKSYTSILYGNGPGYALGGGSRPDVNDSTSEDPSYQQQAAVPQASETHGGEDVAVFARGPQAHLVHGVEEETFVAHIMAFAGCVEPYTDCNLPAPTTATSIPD
Procedure: Enzyme activity was measured by the release of p-nitrophenol from the nucleotide derivatives using a UV-vis spectrophotometer at 405 nm. Relative activity and resistance of nucleotides to enzymatic hydrolysis were determined at 37° C. Briefly, 32.5 μl of nucleotide derivative (77 μg/ml in 0.1 M Tris-HCl and 0.1 M MgCl2, pH 7.5) and 6 μl of deionized water were incubated with calf intestine alkaline phosphatase (Fermentas Inc., Glen Burnie, Md., 1 unit/μl, 6.25 μl at 37° C. final pH=9.8). After 30 min, the reaction was stopped by incubation at 80° C. for 30 min. The stability of the nucleotide derivative was evaluated by HPLC to monitor possible dephosphorylation products. The mixture was separated on a Gemini analytic column (5u C-18 110A, 150×4.60 mm) using gradient elution with Solvent System I (see Example 1) at 90:10 to 70:30 A:B for 3A and 3B, and 82:18 to 50:50 for 4A, 4B and 2 over 20 min and at a flow rate of 1 ml/min.

[6] = Stability in human blood serum (Example 10)

## 2-MeS-ATP-α-B [Compound 1]
Perfused rat pancreas
  enhancement of insulin secretion as compared to basal secretion: 9 fold
Perfused rat pancreas; read-out: EC50 of insulin secretion
  EC50: 28 nM

## Nc1ncnc2c1ncn2[C@@H]1O[C@H](COP(=O)(O)OP(=O)(O)OP(=O)(O)O)[C@@H](O)[C@H]1O [ATP, reference compound]
[1]
  half-life in human blood serum: 7.7 h
ecto-nucleotidases
  degradation by ecto-nucleotidases: completely dephosphorylated
[2]
  half-life in human blood serum: 3.6 h

## CSc1nc(N)c2ncn(C3OC(COP(=O)(O)OP(=O)(O)CP(=O)(O)O)C(O)C3O)c2n1 (stereo not drawn) [Compound 2, β,γ-CH2-2MeS-adenosine-5′-triphosphate]
Human P2Y2
  activity at P2Y2R, in words: inactivity
  Compound-induced activation of [Ca2+], P2Y2, response class: nr
Rat P2Y6
  Compound-induced activation of [Ca2+], P2Y6, response class: sr
  agonistic effect on P2Y6R: slight agonistic effect
Turkey P2Y1
  EC50: 80 nM
Human P2Y4
  Compound-induced activation of [Ca2+], P2Y4, response class: nr
ecto-nucleotidases
  degradation by ecto-nucleotidases: no degradation
[3]
  fraction ionized: 9%
[2]
  half-life in human blood serum: 12.7 h

## CSc1nc(N)c2ncn([C@@H]3O[C@H](COP(=O)(O)OP(=O)(O)O)[C@@H](O)[C@H]3O)c2n1 [Compound 2-MeS-ADP, 2-MeS-ADP, reference compound]
[3]
  fraction ionized: 91%

## CSc1nc(N)c2ncn([C@@H]3O[C@H](COP(=O)(O)OP(=O)(O)OP(=O)(O)O)[C@@H](O)[C@H]3O)c2n1 [Compound 2-MeS-ATP, 2-MeS-ATP]
rP2Y1R
  EC50: 1 nM

## B[P@](=O)(OC[C@H]1O[C@@H](n2cnc3c(N)nc(SC)nc32)[C@H](O)[C@@H]1O)OP(=O)(O)CP(=O)(O)O [Compound 4B, 2MeS-adenosine-β,γ-CH2-5′-O-(1-boranotriphosphate)]
Human P2Y2
  Compound-induced activation of [Ca2+], P2Y2, response class: nr
Rat P2Y6
  Compound-induced activation of [Ca2+], P2Y6, response class: sr
  agonistic effect on P2Y6R: slight agonistic effect
Turkey P2Y1
  EC50: 17200 nM
[1]
  half-life in human blood serum: 71.9 h
Human P2Y4
  Compound-induced activation of [Ca2+], P2Y4, response class: nr

## [BH3-]P(=O)(OC[C@H]1O[C@@H](n2cnc3c(N)nc(SC)nc32)[C@H](O)[C@@H]1O)OP(=O)([O-])[O-].[Na+].[Na+].[Na+] (stereo partly shown) [Compound 19, 2MeS-adenosine-5′-O-(Pα-borano) diphosphate]
[4]; 2.5 mg/kg IV 10 minutes after glucose challenge, preliminary study
  glucose levels after glucose challenge relative to saline treated rats: reduced the glucose levels; also recorded: reduces glycemia

## [BH3-]P(=O)(OC[C@H]1O[C@@H](n2cnc3c(N)nc(SC)nc32)[C@H](O)[C@@H]1O)OP(=O)([O-])[O-].[Na+].[Na+].[Na+] (stereo partly shown) [Compound 19A, 2MeS-adenosine-5′-O-(Pα-borano) diphosphate]
Human P2Y2
  Compound-induced activation of [Ca2+], P2Y2, response class: nr
[5]
  t1/2 to alkaline phosphatase: about 6 h
Rat P2Y6
  Compound-induced activation of [Ca2+], P2Y6, response class: nr
Turkey P2Y1
  EC50: 38 nM
[6]; Example 10
  half-life in human blood serum: > 24 h
[6]; human blood serum, after 24 h
  percentage of the compound hydrolyzed: 25-40%
Human P2Y4
  Compound-induced activation of [Ca2+], P2Y4, response class: nr

## COc1ccc(Cl)cc1C(=O)NCCc1ccc(S(=O)(=O)NC(=O)NC2CCCCC2)cc1 [glibenclamide, reference compound]
[4]; 0.25 mg/kg per os 30 minutes prior to glucose, positive control
  glucose levels after glucose challenge relative to saline treated rats: reduced the glucose levels
